Assay results: patent US7880002B2, “Substituted piperazinyl-pyrrolidine compounds useful as chemokine receptor antagonists” (Millennium Pharmaceuticals, Inc., priority 2004, dated 2011)

Target: T1, CCR1 (Homo sapiens, UniProt P32246)
T1 construct: a monocytic derived cell line that endogenously expresses CCR1; host or cells: THP-1 cells
T1 sequence (P32246 1-355): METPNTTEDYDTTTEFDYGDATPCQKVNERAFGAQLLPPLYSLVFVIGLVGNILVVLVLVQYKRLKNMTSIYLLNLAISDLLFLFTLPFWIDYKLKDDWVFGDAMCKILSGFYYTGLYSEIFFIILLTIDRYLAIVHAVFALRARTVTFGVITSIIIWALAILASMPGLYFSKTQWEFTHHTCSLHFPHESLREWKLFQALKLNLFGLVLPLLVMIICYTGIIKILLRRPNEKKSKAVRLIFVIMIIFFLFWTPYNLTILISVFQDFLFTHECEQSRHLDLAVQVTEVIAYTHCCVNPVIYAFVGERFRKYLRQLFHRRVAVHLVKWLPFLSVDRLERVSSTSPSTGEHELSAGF
Experiment: CCR1 inhibition (THP-1 FLIPR assay / THP-1 whole cell radioligand binding assay; the patent does not say which gave the values)
Assay type: cell-based
Details: threshold list, less than 100 nm; compounds of Table 1; read-out: inhibitory activity
Method: The primary screening assay is a FLIPR® (Fluorometric Imaging Plate Reader, available from Molecular Devices Corporation, Sunnyvale, Calif.) assay using THP-1 cells (ATCC, Catalog No. TIB 202), a monocytic derived cell line that endogenously expresses CCR1.
The cells were resuspended at 1×10^6 cells/ml in dye loading media (growth media (RPMI+10% FBS (Fetal Bovine serum)+5.5×10^−5M 2-mercaptoethanol)+10 mM HEPES (N-2-hydroxyethylpiperazine-N′-2-ethane-sulfonic acid)+2.5 mM probenecid+fluo-3 (1:250)). The cells were incubated for 1 hour at 37° C. and then washed in FLIPR wash buffer (100 mL 10× HBSS (Hanks Buffered Saline Solution) (w/Ca++/Mg++)+20 mL 1M HEPES+1 g BSA+10 mL 250 mM probenecid+water (to make 1 L)) and plated at 50,000 cells/well in black/clear 384 well plates. The plates were transferred to FLIPR where the ability of different concentrations of compounds to inhibit RANTES induced calcium flux was assessed. Inhibition of the CCR1 response was reflected by a decrease of the fluorescence signal relative to the positive controls (RANTES alone).
THP-1 Whole Cell Radioligand Binding Assay
The cells were washed with PBS (phosphate buffered saline) and resuspended in binding buffer (10 mM HEPES pH 7.2, 1× HBSS (w/Ca^2+, Mg^2+) 0.5% BSA, 0.02% Na-azide) at 4×10^6 cells/ml (for 200, 000 cells/well). Cells were incubated with 0.1 to 0.2 nM [^125I]-labeled MIP-1α with or without unlabeled competitor (MIP-1α) or various concentrations of compounds for 60 minutes at room temperature. The assay was terminated by vacuum filtration through glass fiber filters (GF/B, Packard) which were presoaked in 0.3% polyethyleneimine. The filters were washed with wash buffer (10 mM HEPES, pH 7.2, 1 mM CaCl2, 5 mM MgCl2 0.5M NaCl), dried and the amount of bound radioactivity was determined by scintillation counting.

IC50, < 0.1 µM:
CNC(=O)Nc1ccc2nc(C(F)(F)F)nc(N3C[C@H](O)[C@@H](N4CCN(C(=O)c5ccc(Cl)cc5)CC4)C3)c2c1 (stereo in doubt) [Example 196, N-[4-{3-[4-(4-chlorobenzoyl)piperazin-1-yl]-4-hydroxypyrrolidin-1-yl}-2-(trifluoromethyl)quinazolin-6-yl]-N′-methylurea]
CNC(=O)c1ccc2nc(C(F)(F)F)nc(N3C[C@@H](O)[C@H](N4CCN(C(=O)c5ccc(Cl)cc5)CC4)C3)c2c1 (stereo in doubt) [Example 198, 4-{3-[4-(4-chlorobenzoyl)piperazin-1-yl]-4-hydroxypyrrolidin-1-yl}-N-methyl-2-(trifluoromethyl)quinazoline-6-carboxamide]
CC(C)(O)c1ccc2nc(C(F)(F)F)nc(N3C[C@@H](O)[C@H](N4CCN(C(=O)c5ccc(Cl)cc5)CC4)C3)c2c1 (stereo in doubt) [Example 199, 4-[4-(4-chlorobenzoyl)piperazin-1-yl]-1-[6-(1-hydroxy-1-methylethyl)-2-(trifluoromethyl)quinazolin-4-yl]pyrrolidin-3-ol]
O=C(c1ccc(Cl)cc1)N1CCN([C@H]2CN(c3nc(C(F)(F)F)nc4cc(Cl)ccc34)C[C@@H]2O)CC1 (stereo in doubt) [Example 201, 4-[4-(4-chlorobenzoyl)piperazin-1-yl]-1-[7-chloro-2-(trifluoromethyl)quinazolin-4-yl]pyrrolidin-3-ol]
O=C(c1ccc(Cl)cc1)N1CCN([C@@H]2CN(c3nc(C(F)(F)F)nc4ccc(N5CCNC5=O)cc34)C[C@H]2O)CC1 (stereo in doubt) [Example 202, 1-[4-{3-[4-(4-chlorobenzoyl)piperazin-1-yl]-4-hydroxypyrrolidin-1-yl}-2-(trifluoromethyl)quinazolin-6-yl]imidazolidin-2-one]
N#Cc1ccc2nc(C(F)(F)F)nc(N3C[C@@H](O)[C@H](N4CCN(C(=O)c5ccc(Cl)cc5)CC4)C3)c2c1 (stereo in doubt) [Example 203, 4-{3-[4-(4-chlorobenzoyl)piperazin-1-yl]-4-hydroxypyrrolidin-1-yl}-2-(trifluoromethyl)quinazoline-6-carbonitrile]
O=C(c1ccc(Cl)cc1)N1CCN([C@@H]2CN(c3nc(C(F)(F)F)nc4ccc(-c5nn[nH]n5)cc34)C[C@H]2O)CC1 (stereo in doubt) [Example 204, 4-[4-(4-chlorobenzoyl)piperazin-1-yl]-1-[6-(2H-tetrazol-5-yl)-2-(trifluoromethyl)quinazolin-4-yl]pyrrolidin-3-ol]
O=C(c1ccc(Cl)cc1)N1CCN([C@@H]2CN(c3ccnc4cc(C(F)(F)F)ccc34)C[C@H]2O)CC1 [Example 12, 4-[4-(4-chlorobenzoyl)piperazin-1-yl]-1-[7-(trifluoromethyl)quinolin-4-yl]pyrrolidin-3-ol]
O=C(c1ccc(Cl)cc1)N1CCN([C@@H]2CN(c3nccc4ccccc34)C[C@H]2O)CC1 [Example 21, 4-[4-(4-chlorobenzoyl)piperazin-1-yl]-1-isoquinolin-1-ylpyrrolidin-3-ol]
O[C@@H]1CN(c2ccnc3cc(Cl)ccc23)C[C@H]1N1CCN(Cc2ccc(Cl)cc2)CC1 [Example 61, (3R,4R)-4-[4-(4-chlorobenzyl)piperazin-1-yl]-1-(7-chloroquinolin-4-yl)pyrrolidin-3-ol]
O=C(c1ccc(Cl)cc1)N1CCN([C@H]2CN(c3nccc(C(F)(F)F)n3)C[C@@H]2O)CC1 [Example 68, (3S,4S)-4-[4-(4-chlorobenzoyl)piperazin-1-yl]-1-[4-(trifluoromethyl)pyrimidin-2-yl]pyrrolidin-3-ol]
O=C(c1ccc(Cl)cc1)N1CCN([C@H]2CN(c3cccc(C(F)(F)F)n3)C[C@@H]2O)CC1 [Example 79]
O=C(c1ccc(Cl)cc1)N1CCN([C@@H]2CN(c3nc(-c4ccccc4)nc4ccccc34)C[C@H]2O)CC1 [Example 101, 4-[4-(4-chlorobenzoyl)piperazin-1-yl]-1-(2-phenylquinazolin-4-yl)pyrrolidin-3-ol]
O=C(c1ccc(Cl)cc1)N1CCN([C@H]2CN(c3ncnc4cc(Cl)ccc34)C[C@@H]2O)CC1 [Example 105, (3S,4S)-4-[4-(4-chlorobenzoyl)piperazin-1-yl]-1-(7-chloroquinazolin-4-yl)pyrrolidin-3-ol]
O[C@@H]1CN(c2nc(C(F)(F)F)cc(C(F)(F)F)n2)C[C@H]1N1CCN(Cc2ccc(Cl)cc2)CC1 [Example 110, 1-[4,6-bis(trifluoromethyl)pyrimidin-2-yl]-4-[4-(4-chlorobenzyl)piperazin-1-yl]pyrrolidin3-ol]
CC(C)(C)c1cc(C(F)(F)F)nc(N2CC(O)C(N3CCN(C(=O)c4ccc(Cl)cc4)CC3)C2)n1 (centres unmarked) [Example 129, 1-[4-tert-butyl-6-(trifluoromethyl)pyrimidin-2-yl]-4-[4-(4-chlorobenzoyl)piperazin-1-yl]pyrrolidin-3-ol]
O[C@@H]1CN(c2ncnc3cc(Cl)ccc23)C[C@H]1N1CCN(Cc2ccc(Cl)cc2)CC1 [Example 141, (3R,4R)-4-[4-(4-chlorobenzyl)piperazin-1-yl]-1-(7-chloroquinazolin-4-yl)pyrrolidin-3-ol]
Cc1cc(C(F)(F)F)nc(N2C[C@H](O)[C@@H](N3CCN(C(=O)c4ccc(Cl)cc4)CC3)C2)n1 [Example 150, (3S,4S)-4-[4-(4-chlorobenzoyl)piperazin-1-yl]-1-[4-methyl-6-(trifluoromethyl)pyrimidin-2-yl]pyrrolidin-3-ol]
Cc1nc(C(F)(F)F)nc(N2C[C@H](O)[C@@H](N3CCN(C(=O)c4ccc(Cl)cc4)CC3)C2)c1C [Example 157, (3S,4S)-4-[4-(4-chlorobenzoyl)piperazin-1-yl]-1-[5,6-dimethyl-2-(trifluoromethyl)pyrimidin-4-yl]pyrrolidin-3-ol]
NC(=O)c1ccc2nc(C(F)(F)F)nc(N3C[C@@H](O)[C@H](N4CCN(C(=O)c5ccc(Cl)cc5)CC4)C3)c2c1 [Example 189, 4-{(3R,4R)-3-[4-(4-chlorobenzoyl)piperazin-1-yl]-4-hydroxypyrrolidin-1-yl}-2-(trifluoromethyl)quinazoline-6-carboxamide]
